Test results published in BigSolDB 2.1.

On1nnc2ccccc21
Settings	solubility (mole fraction)
in 1,4-dioxane, 288.15 K	0.0145
in 1,4-dioxane, 290.65 K	0.0158
in 1,4-dioxane, 293.15 K	0.0171
in 1,4-dioxane, 295.65 K	0.0187
in 1,4-dioxane, 298.15 K	0.0202
in 1,4-dioxane, 300.65 K	0.0225
in 1,4-dioxane, 303.15 K	0.0247
in 1,4-dioxane, 305.65 K	0.0272
in 1,4-dioxane, 308.15 K	0.0298
in 1,4-dioxane, 310.65 K	0.0331
in 1,4-dioxane, 313.15 K	0.0364
in 2-butanone, 278.15 K	0.0157
in 2-butanone, 280.65 K	0.0169
in 2-butanone, 283.15 K	0.0181
in 2-butanone, 285.65 K	0.0195
in 2-butanone, 288.15 K	0.021
in 2-butanone, 290.65 K	0.0225
in 2-butanone, 293.15 K	0.0241
in 2-butanone, 295.65 K	0.0259
in 2-butanone, 298.15 K	0.0278
in 2-butanone, 300.65 K	0.0299
in 2-butanone, 303.15 K	0.0323
in 2-butanone, 305.65 K	0.0347
in 2-butanone, 308.15 K	0.0372
in 2-butanone, 310.65 K	0.0402
in 2-butanone, 313.15 K	0.0433
in DMF, 278.15 K	0.0412
in DMF, 280.65 K	0.0464
in DMF, 283.15 K	0.0522
in DMF, 285.65 K	0.0587
in DMF, 288.15 K	0.0646
in DMF, 290.65 K	0.072
in DMF, 293.15 K	0.0794
in DMF, 295.65 K	0.0884
in DMF, 298.15 K	0.098
in DMF, 300.65 K	0.109
in DMF, 303.15 K	0.121
in DMF, 305.65 K	0.134
in DMF, 308.15 K	0.148
in DMF, 310.65 K	0.164
in DMF, 313.15 K	0.18
in DMSO, 278.15 K	0.0337
in DMSO, 280.65 K	0.0377
in DMSO, 283.15 K	0.0421
in DMSO, 285.65 K	0.0475
in DMSO, 288.15 K	0.0529
in DMSO, 290.65 K	0.0592
in DMSO, 293.15 K	0.0664
in DMSO, 295.65 K	0.0738
in DMSO, 298.15 K	0.082
in DMSO, 300.65 K	0.0921
in DMSO, 303.15 K	0.103
in DMSO, 305.65 K	0.114
in DMSO, 308.15 K	0.128
in DMSO, 310.65 K	0.142
in DMSO, 313.15 K	0.157
in acetone, 278.15 K	0.0139
in acetone, 280.65 K	0.0149
in acetone, 283.15 K	0.016
in acetone, 285.65 K	0.0171
in acetone, 288.15 K	0.0184
in acetone, 290.65 K	0.0198
in acetone, 293.15 K	0.0214
in acetone, 295.65 K	0.0229
in acetone, 298.15 K	0.0246
in acetone, 300.65 K	0.0266
in acetone, 303.15 K	0.0285
in acetone, 305.65 K	0.0306
in acetone, 308.15 K	0.033
in acetone, 310.65 K	0.0355
in acetone, 313.15 K	0.0383
in acetonitrile, 278.15 K	0.00229
in acetonitrile, 280.65 K	0.00249
in acetonitrile, 283.15 K	0.00271
in acetonitrile, 285.65 K	0.00295
in acetonitrile, 288.15 K	0.00322
in acetonitrile, 290.65 K	0.00348
in acetonitrile, 293.15 K	0.0038
in acetonitrile, 295.65 K	0.00414
in acetonitrile, 298.15 K	0.00449
in acetonitrile, 300.65 K	0.00488
in acetonitrile, 303.15 K	0.00531
in acetonitrile, 305.65 K	0.0058
in acetonitrile, 308.15 K	0.00631
in acetonitrile, 310.65 K	0.00685
in acetonitrile, 313.15 K	0.00749
in ethanol, 278.15 K	0.0318
in ethanol, 280.65 K	0.0331
in ethanol, 283.15 K	0.0355
in ethanol, 285.65 K	0.0377
in ethanol, 288.15 K	0.0406
in ethanol, 290.65 K	0.0433
in ethanol, 293.15 K	0.0462
in ethanol, 295.65 K	0.0493
in ethanol, 298.15 K	0.0528
in ethanol, 300.65 K	0.0566
in ethanol, 303.15 K	0.0605
in ethanol, 305.65 K	0.0651
in ethanol, 308.15 K	0.0697
in ethanol, 310.65 K	0.0746
in ethanol, 313.15 K	0.0802
in ethyl acetate, 278.15 K	0.00505
in ethyl acetate, 280.65 K	0.00555
in ethyl acetate, 283.15 K	0.00606
in ethyl acetate, 285.65 K	0.00676
in ethyl acetate, 288.15 K	0.00745
in ethyl acetate, 290.65 K	0.00821
in ethyl acetate, 293.15 K	0.00908
in ethyl acetate, 295.65 K	0.0101
in ethyl acetate, 298.15 K	0.0115
in ethyl acetate, 300.65 K	0.013
in ethyl acetate, 303.15 K	0.0149
in ethyl acetate, 305.65 K	0.0169
in ethyl acetate, 308.15 K	0.0193
in ethyl acetate, 310.65 K	0.0219
in ethyl acetate, 313.15 K	0.0247
in isooctanol, 278.15 K	0.0108
in isooctanol, 280.65 K	0.0112
in isooctanol, 283.15 K	0.0115
in isooctanol, 285.65 K	0.0119
in isooctanol, 288.15 K	0.0123
in isooctanol, 290.65 K	0.0127
in isooctanol, 293.15 K	0.0132
in isooctanol, 295.65 K	0.0137
in isooctanol, 298.15 K	0.0143
in isooctanol, 300.65 K	0.0149
in isooctanol, 303.15 K	0.0154
in isooctanol, 305.65 K	0.0161
in isooctanol, 308.15 K	0.0168
in isooctanol, 310.65 K	0.0175
in isooctanol, 313.15 K	0.0182
in isopentanol, 278.15 K	0.0109
in isopentanol, 280.65 K	0.0114
in isopentanol, 283.15 K	0.0118
in isopentanol, 285.65 K	0.0123
in isopentanol, 288.15 K	0.0127
in isopentanol, 290.65 K	0.0132
in isopentanol, 293.15 K	0.0137
in isopentanol, 295.65 K	0.0143
in isopentanol, 298.15 K	0.0148
in isopentanol, 300.65 K	0.0155
in isopentanol, 303.15 K	0.0161
in isopentanol, 305.65 K	0.0167
in isopentanol, 308.15 K	0.0174
in isopentanol, 310.65 K	0.0181
in isopentanol, 313.15 K	0.0188
in isopropanol, 278.15 K	0.0248
in isopropanol, 280.65 K	0.0261
in isopropanol, 283.15 K	0.0281
in isopropanol, 285.65 K	0.0301
in isopropanol, 288.15 K	0.032
in isopropanol, 290.65 K	0.0341
in isopropanol, 293.15 K	0.0367
in isopropanol, 295.65 K	0.0392
in isopropanol, 298.15 K	0.0421
in isopropanol, 300.65 K	0.0451
in isopropanol, 303.15 K	0.0481
in isopropanol, 305.65 K	0.0515
in isopropanol, 308.15 K	0.0553
in isopropanol, 310.65 K	0.0592
in isopropanol, 313.15 K	0.0637
in methanol, 278.15 K	0.0223
in methanol, 280.65 K	0.0239
in methanol, 283.15 K	0.0254
in methanol, 285.65 K	0.0274
in methanol, 288.15 K	0.0294
in methanol, 290.65 K	0.0314
in methanol, 293.15 K	0.0336
in methanol, 295.65 K	0.0358
in methanol, 298.15 K	0.0386
in methanol, 300.65 K	0.0415
in methanol, 303.15 K	0.0445
in methanol, 305.65 K	0.048
in methanol, 308.15 K	0.0522
in methanol, 310.65 K	0.0562
in methanol, 313.15 K	0.0609
in n-heptanol, 278.15 K	0.0119
in n-heptanol, 280.65 K	0.0123
in n-heptanol, 283.15 K	0.0129
in n-heptanol, 285.65 K	0.0134
in n-heptanol, 288.15 K	0.014
in n-heptanol, 290.65 K	0.0146
in n-heptanol, 293.15 K	0.0152
in n-heptanol, 295.65 K	0.0158
in n-heptanol, 298.15 K	0.0165
in n-heptanol, 300.65 K	0.0173
in n-heptanol, 303.15 K	0.0182
in n-heptanol, 305.65 K	0.019
in n-heptanol, 308.15 K	0.02
in n-heptanol, 310.65 K	0.021
in n-heptanol, 313.15 K	0.022
in n-hexanol, 278.15 K	0.0114
in n-hexanol, 280.65 K	0.0118
in n-hexanol, 283.15 K	0.0123
in n-hexanol, 285.65 K	0.0129
in n-hexanol, 288.15 K	0.0134
in n-hexanol, 290.65 K	0.0139
in n-hexanol, 293.15 K	0.0145
in n-hexanol, 295.65 K	0.0152
in n-hexanol, 298.15 K	0.0159
in n-hexanol, 300.65 K	0.0166
in n-hexanol, 303.15 K	0.0174
in n-hexanol, 305.65 K	0.0182
in n-hexanol, 308.15 K	0.019
in n-hexanol, 310.65 K	0.0198
in n-hexanol, 313.15 K	0.0206
in n-propanol, 278.15 K	0.0297
in n-propanol, 280.65 K	0.0319
in n-propanol, 283.15 K	0.034
in n-propanol, 285.65 K	0.0362
in n-propanol, 288.15 K	0.0387
in n-propanol, 290.65 K	0.0412
in n-propanol, 293.15 K	0.044
in n-propanol, 295.65 K	0.0472
in n-propanol, 298.15 K	0.0502
in n-propanol, 300.65 K	0.0535
in n-propanol, 303.15 K	0.0573
in n-propanol, 305.65 K	0.0612
in n-propanol, 308.15 K	0.0655
in n-propanol, 310.65 K	0.0698
in n-propanol, 313.15 K	0.0749
in toluene, 278.15 K	1.1e-05
in toluene, 280.65 K	1.2e-05
in toluene, 283.15 K	1.5e-05
in toluene, 285.65 K	1.61e-05
in toluene, 288.15 K	1.99e-05
in toluene, 290.65 K	2.17e-05
in toluene, 293.15 K	2.49e-05
in toluene, 295.65 K	2.85e-05
in toluene, 298.15 K	3.26e-05
in toluene, 300.65 K	3.61e-05
in toluene, 303.15 K	4.28e-05
in toluene, 305.65 K	4.87e-05
in toluene, 308.15 K	5.56e-05
in toluene, 310.65 K	6.2e-05
in toluene, 313.15 K	6.92e-05
